Reference: patent publication US7033829B2, “Method to inhibit cell growth using oligonucleotides” (Trustees of Boston University, priority 2000, dated 2006)
{P} = phosphate

Assays:
[1] = tested on: Cloudman S91 mouse melanoma cells; assay: Melanin content of Cloudman S91 melanoma cells; assay type: cell-based; settings: for increase in melanin content: variations of the 9-mer, cells not given; for melanogenic activity: with 5′ phosphate, FIG. 18
Procedure: (§1) The induction of melanogenesis in Cloudman S91 mouse melanoma cells by a five-nucleotide oligomer CATAC (SEQ ID NO: 6) and a nine-nucleotide oligomer, GAGTATGAG (SEQ ID NO: 1) was examined. Duplicates of Cloudman S91 murine melanoma cells were incubated with either 100 μM oligo or an equal volume of diluent (H2O) for 5 days. The cells were then collected, counted, and an equal number of cells were pelleted for melanin analysis. […] Variations of this oligonucleotide were evaluated: a scrambled 9-mer (TAGGAGGAT; SEQ ID NO: 2) and two truncated versions, a 7-mer (AGTATGA; SEQ ID NO: 3) and second 5-mer (GTATG; SEQ ID NO: 4). […] The truncated versions (SEQ ID NOs: 3 and 4) were also active, inducing 640% and 670% increases, respectively.
Cultures of Cloudman S91 murine melanoma cells were treated for 5 days with SEQ ID NO: 1, SEQ ID NO: 6, pTpT as a positive control, or an equal volume of diluent as a negative control. […] SEQ ID NO: 6 produced a slight increase in melanin, to 165+/−77% of control levels. SEQ ID NO: 1 stimulated melanin content to an average of 600+/−260% of control levels.
pTpT, shown previously to stimulate pigmentation in these cells, was used as a reference treatment, and diluent alone was used as a negative control. After five days of treatment with the oligonucleotides, the cells were collected, counted, and an equal number of cells were pelleted for melanin analysis. […] SEQ ID NO: 5, representing the telomere over-hang sequence, also at 10 μM, increased the melanin level to 10 times that of control cells.
S91 cells were cultured in the presence of diluent alone, pTpT p9mer (SEQ ID NO: 1), p7mer (AGTATGA; SEQ ID NO: 7) or p5mer #2 (SEQ ID NO: 4). […] Both SEQ ID NOS: 4 and 7 stimulated a 7–8 fold increase in melanin.
S91 cells were cultured for 5 days in the presence of the thymidine dinucleotides or SEQ ID NO: 1 with or without a 5′ phosphate or diluent alone as a negative control.
Cultures of S91 mouse melanoma cells (100,000 cells/38 cm^2) were treated with 100 μM pTpT or phosphorothioate pTpT (pTspT) (FIG. 22) or 40 μM 11mer-1 or the phosphorothioate 11mer-1 (11mer-1-S) (FIG. 23) for 6 days and were then collected, counted and assayed for melanin content.
Duplicate cultures of S91 cells (100,000 cells/39 cm^2) were either sham-irradiated or irradiated with 5 mJ/cm^2 solar-simulated light from a 1 kW xenon arc solar-simulator (XMN 1000-21, Optical Radiation, Azuza, Calif.) metered at […] using a research radiometer (model IL1700A, International Light, Newburyport, Mass.). Two sham-irradiated plates were then supplemented with 100 μM pTspT and two irradiated cultures were similarly treated with pTspT. After one week, cells were collected, counted and analyzed for melanin content by dissolving the cell pellets in 1 N NaOH and measuring the optical density at […]. […] However, this response was blocked by the addition of pTspT (FIG. 24). In addition, the constitutive pigmentation of these cells was reduced by the pTspT in the sham-irradiated cultures, similar to the data presented in FIGS. 22 and 23.

[2] = tested on: Human squamous carcinoma cell line SCC12F cells; assay: Cell growth / cell yield of SCC12F cells (Coulter counter); assay type: cell-based; settings: after 2 days; FIG. 14
Procedure: Human squamous carcinoma cell line SCC12F cells were maintained in primary keratinocyte medium (300 ml DME, 100 ml F-12 nutrient supplement, 50 ml 10× adenine, 50 ml fetal bovine serum, 5 ml penicillin/streptomycin stock, and 0.5 ml of 10 μg/ml epidermal growth factor and hydrocortisone to final concentration of 1.4 μg/ml) and dosed with either water (diluent), 100 μM pTpT (T2, Midland Certified Reagent Company, Midland, Tex.) or 100 μM pdApdA (A2). Cells were harvested before dosing (day 0), and 1, 3, 4, and 5 days after dosage, and were counted by Coulter™ counter. After harvesting, the cells were processed for total RNA isolation and were analyzed by Northern blot. Addition of a control deoxyadenine dinucleotide (pdApdA), a compound very similar to pTpT but not readily dimerized by UV irradiation, and therefore rarely excised during the course of UV-induced DNA repair, has no effect.
In a second experiment, SCC12F cells were cultured as described above. Two or three days after seeding, the preconfluent cultures were given fresh medium supplemented with either 100 μM T2 or diluent as a control. Cells were collected daily by trypsinization and counted by Coulter™ counter. The cell yield in cultures treated with T2 was reduced by […] compared to that of paired control cultures after five days (FIG. 2). This corresponds to 2.3 population doublings in this time for control cells, compared with 1 doubling for T2-treated cells.
(§2) pTpT was previously found to inhibit cell cycle progression, at least in part through activation of p53 and subsequent upregulation of the cyclin dependent kinase inhibitor p21. Cultures of the human keratinocyte line SCC12F were treated with pTpT, SEQ ID NO: 1, SEQ ID NO: 6 or diluent alone as a negative control, collected and counted 48 hours later and processed for northern blot analysis of p21 mRNA expression. […] Thus, the sequences of the present invention activate p53 and inhibit cell proliferation similar to the effect of pTpT.
Exposure of keratinocytes to UVB irradiation affects the expression of genes involved in cell cycle arrest, DNA repair and cytokine production. Single-stranded oligonucleotides sharing sequence homology with the telomere 3′ overhang, when introduced into cells, mimic these UV effects. To identify other genes that may be similarly modulated, cells of keratinocyte origin (SCC12F; a human epidermal squamous cell carcinoma line provided by Dr. James Rheinwald of Harvard University) were exposed to solar simulated irradiation (SSR) (20 mJ/cm^2, measured at 285±5 nm), to an 11-base oligonucleotide (pGTTAGGGTTAG; SEQ ID NO:5) homologous to the telomere overhang (T-oligo), or to a complementary sequence as control [pCTAACCCTAAC; (SEQ ID NO:9) control oligonucleotide]. […] These are mitochondrial-transcribed genes whose encoded proteins participate in cellular respiration.

p21/Waf 1/Cip 1 gene = assay: p21 mRNA Northern blot in SCC12F cells; assay type: cell-based, human; settings: 48 hours
Procedure: as §1, §2

S91 cells = assay: Cellular uptake of FAM-labeled oligonucleotides in S91 cells; assay type: in vitro ADME, mouse; settings: 4 hours
Procedure: Fluorescein phosphoramidite (FAM) labeled oligonucleotides were added to cultures of S91 cells for 4 hours and the cells were then prepared for confocal microscopy. Nuclei, identified by staining with propidium iodide, appeared red and FAM-labeled oligonucleotides appeared green. Co-localization of red and green signals was assigned a yellow color by the computer. […] There was no change in the profile of oligonucleotide uptake after 6 and 24 hours.

Jurkat cells = assay: FACS cell cycle / apoptosis analysis of Jurkat cells; assay type: cell-based, human
Procedure: Oligonucleotides homologous to the telomere overhang repeat sequence (TTAGGG; SEQ ID NO:11), sequence (11mer-1: pGTTAGGGTTAG; SEQ ID NO: 5), complementary to this sequence (11mer-2: pCTAACCCTAAC; SEQ ID NO: 9) and unrelated to the telomere sequence (11mer-3: pGATCGATCGAT; SEQ ID NO: 10) were added to cultures of Jurkat cells, a line of human T cells, one of the cell types reported to undergo apoptosis in response to telomere disruption. Within 48 hours, 50% of the cells treated with 40 μM of SEQ ID NO: 5 had accumulated in the S phase, compared to 25–30% for control cells (p<0.0003, non-paired t-test; see FIGS. 19A–19D), and by 72 hours, 13% of these cells were apoptotic as determined by a sub-G0/G1 DNA content, compared to 2–3% of controls (p<0.007, non-paired t-test; see FIGS. 19E–19H). At 96 hours, 20±3% of the 11mer-1 treated cells were apoptotic compared with 3–5% of controls (p<0.0001, non-paired t-test). To exclude preferential uptake of the 11mer-1 as an explanation of its singular effects, Jurkat cells were treated with oligonucleotides labeled on the 3′ end with fluorescein phosphoramidite, then subjected to confocal microscopy and FACS analysis. The fluorescence intensity of the cells was the same after all treatments at 4 hours and 24 hours.
Three DNA oligonucleotides were designed initially: one homologous to the telomere overhang (11mer-1: pGTTAGGGTTAG; SEQ ID NO:5), one complementary to this sequence (11mer-2: pCTAACCCTAAC; SEQ ID NO:9) and one unrelated (11mer-3: pGATCGATCGAT; SEQ ID NO:10). For later experiments, additional 11 base oligonucleotides were designed: one a simple permutation of 11mer-1 (pGGGTTAGGGTT; SEQ ID NO:13), one with the same number of G residues but roughly 50% rather than 100% homology to the overhang (pTAGATGTGGTG; SEQ ID NO:14), and one with roughly 50% overhang homology but also containing cytosine bases (pCGGGCTTATTG; SEQ ID NO:15) (Midland Certified Reagent Company, Midland, Tex.). Cell Sources and Culture Human neonatal fibroblasts were established and cultured as previously described (Eller, M. S., et al., 1997, Proc Natl Acad Sci USA 94: 12627–12632). Fibroblasts from a Nijmegen breakage syndrome (NBS) patient (#GM07166) and an age-matched control (GM03399) were purchased from the NIGMS Human Cell Repository, Coriell Institute for Medical Research, Camden, N.J.) and cultured in DMEM/15% FBS. Saos-2 cells were purchased from the American Type Culture Collection (ATCC; Manassas, Va.). SCC12F cells were the kind gift of Dr. James Rheinwald, Harvard University. Cell Cycle Analysis The established line of human T lymphocytes, termed Jurkat cells (180,000 cells/ml) were plated in RPMI medium 1640 supplemented with 3% FBS (both from GIBCO/BRL, Gaithersburg, Md.). […] Cells were collected up to 96 hours after treatment, stained with propidium iodide and analyzed by FACS using a Becton-Dickinson FacsScan and CellQuest software. Caspase Activity
Oligonucleotides homologous to the 3′ overhang sequence (11mer-1: pGTTAGGGTTAG; SEQ ID NO:5), complementary to this sequence (11mer-2: pCTAACCCTAAC; SEQ ID NO:9) and unrelated to the telomere sequence (11mer-3: pGATCGATCGAT; SEQ ID NO:10) were synthesized. The three 11mer oligonucleotides were added to cultures of Jurkat cells, an established line of human T lymphocytes, a cell type reported to undergo apoptosis in response to telomere disruption [Karlseder, J., et al, (1999) Science 283, 1321–1325] and DNA damaging ionizing radiation (IR) [Vigorito, E., et al, (1999), Hematol Cell Ther 41, 153–161]. Duplicate cultures of Jurkat cells were treated with a final concentration of 40 μM 11mer-1, -2 or -3, oligonucleotides, or an equal volume of diluent (water) as a control. Cells were collected up to 96 hours after treatment, stained with propidium iodideandanalyzed by FACS. See also Example 13 and FIGS. 19A–19H.
To further confirm the specificity of these responses to the telomere overhang sequence, three variations were tested. […]

## AGTATGA (DNA, phosphodiester; further chemistry not fully specified) [SEQ ID NO: 3]
[1]
  increase in melanin content: 640%

## CATAC (DNA, phosphodiester; further chemistry not given here) [SEQ ID NO: 6]
[1]; 100 μM, 5 days, three experiments
  pigment content increase, of control levels: 61%±60%
[1]; 5 days, FIG. 12
  melanin content, of control cells: 165+/−77%
[2]
  reduction of cell number: 25%
p21/Waf 1/Cip 1 gene
  increase in p21 mRNA level: 10–20%

## CCCTAA (DNA, backbone not given here) [SEQ ID NO: 12]
[1]
  melanogenic activity: less active

## GAGTATGAG (DNA, phosphodiester; further chemistry not fully specified) [SEQ ID NO: 1 without 5′ phosphorylation]
S91 cells
  cellular uptake and localization (confocal microscopy, FACS): only moderate uptake

## GTATG (DNA, phosphodiester; further chemistry not fully specified) [SEQ ID NO: 4]
[1]
  increase in melanin content: 670%

## TAGGAGGAT (DNA, phosphodiester; further chemistry not fully specified) [SEQ ID NO: 2]
[1]
  increase in melanin content: 800%

## TTAGGG (Synthetic DNA Fragment) [SEQ ID NO: 11]
[1]
  melanogenic activity: highly melanogenic

## pCGGGCTTATTG (DNA, 5' {P}, backbone not given here) [SEQ ID NO:15, reference compound]
Jurkat cells; 10 μM
  apoptosis and S-phase arrest: failed to induce apoptosis and only induced a moderate S-phase arrest
Jurkat cells; 10 μM, 72 hours
  apoptotic cells by FACS analysis: 2%
Jurkat cells; 10 μM, 96 hours
  apoptotic cells by FACS analysis: 2–4%

## pGGGTTAGGGTT [SEQ ID NO:13]
Jurkat cells; 10 μM, 72 hours
  apoptotic cells by FACS analysis: 13%
Jurkat cells; 10 μM, 96 hours
  apoptotic cells by FACS analysis: 28%
Jurkat cells; separate paired cultures
  activity of the two complete telomere overhang homologs: equal in activity

## pTAGATGTGGTG (DNA, 5' {P}, backbone not given here) [SEQ ID NO:14]
Jurkat cells; 10 μM, 72 hours
  apoptotic cells by FACS analysis: 10%
Jurkat cells; 10 μM, 96 hours
  apoptotic cells by FACS analysis: 16%

## pTspT
[1]; 100 μM dinucleotides or 40 μM 11mers, 6 days
  melanogenesis: did not
[1]; 100 μM pTspT or 40 μM 11mer-1-S, 6 days or one week
  constitutive pigmentation: reduced the constitutive pigmentation
[1]; 100 μM, 5 mJ/cm^2 solar-simulated light, one week
  UV-induced doubling of melanin content: blocked
